Reference: US10106501B2, “Nuclear receptor modulators” (AbbVie Inc., priority 2015, dated 2018)

Target: T1, chimeric human RORγ-Gal4 receptor (Homo sapiens, UniProt P51449)
T1 sequence (P51449 269-508 limits assumed): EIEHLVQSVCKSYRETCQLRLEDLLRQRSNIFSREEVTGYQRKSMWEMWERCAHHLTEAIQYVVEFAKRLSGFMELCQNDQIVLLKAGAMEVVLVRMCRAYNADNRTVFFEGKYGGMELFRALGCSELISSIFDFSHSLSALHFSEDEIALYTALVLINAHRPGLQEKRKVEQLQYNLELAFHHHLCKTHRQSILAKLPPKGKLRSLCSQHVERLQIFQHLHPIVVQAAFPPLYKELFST
Assay: transient transactivation assay (RORγ-Gal4 luciferase reporter)
Type: cell-based
Details: Cos-7 cells transfected with RORγ-Gal4 and 5Gal4 pGL3 TK Luc reporter; overnight incubation; T0901317 at 10^-5 M as reference; read-out: IC50

Structure (SMILES)	IC50 [nM]
Cc1cn(Cc2c(Cl)ccc(C(=O)N3CCC(CC(=O)O)CC3)c2Cl)c2c(C)cc(OC(F)(F)F)cc12 [EG, 2-[1-[2,4-dichloro-3-[[3,7-dimethyl-5-(trifluoromethoxy)-1H-indol-1-yl]methyl]benzoyl]-4-piperidyl]acetic acid]	< 100
Cc1cn(Cc2c(Cl)ccc(C(=O)N3CCC(C(=O)O)CC3)c2Cl)c2c(C)cc(OC(F)(F)F)cc12 [EG-1]	< 100
Cc1cn(Cc2c(Cl)ccc(C(=O)N3CC[C@@H](C(=O)O)[C@@H](C)C3)c2Cl)c2c(C)cc(OC(F)(F)F)cc12 [EG-2]	< 100
Cc1cn(C(=O)c2c(Cl)ccc(C(=O)N3CCC(CC(=O)O)CC3)c2Cl)c2c(C)cc(OC(F)(F)F)cc12 [EH, 2-[1-[2,4-dichloro-3-[3,7-dimethyl-5-(trifluoromethoxy)indole-1-carbonyl]benzoyl]-4-piperidyl]acetic acid]	< 100
Cc1cn(C(=O)c2c(Cl)ccc(C(=O)N3CCC(C(=O)O)CC3)c2Cl)c2c(C)cc(OC(F)(F)F)cc12 [EH-1]	100 to 500
O=C(O)CC1CCN(C(=O)c2ccc(Cl)c(Cn3ccc4cc(OC(F)(F)F)ccc43)c2Cl)CC1 [EI, 2-(1-(2,4-dichloro-3-((5-(trifluoromethoxy)-1H-indol-1-yl)methyl)benzoyl)piperidin-4-yl)acetic acid]	< 100
CC(C)c1ccc2c(ccn2Cc2c(Cl)ccc(C(=O)N3CCC(CC(=O)O)CC3)c2Cl)c1 [EI-1]	< 100
CSc1ccc2c(ccn2Cc2c(Cl)ccc(C(=O)N3CCC(CC(=O)O)CC3)c2Cl)c1 [EI-2]	< 100
O=C(O)CC1CCN(C(=O)c2ccc(Cl)c(Cn3ccc4cccc(Cl)c43)c2Cl)CC1 [EI-3]	< 100
O=C(O)CC1CCN(C(=O)c2ccc(Cl)c(Cn3ccc4cc(C(F)(F)F)ccc43)c2Cl)CC1 [EI-4]	< 100
O=C(O)CC1CCN(C(=O)c2ccc(Cl)c(Cn3ccc4cc(C(F)(F)F)cc(Cl)c43)c2Cl)CC1 [EI-5]	< 100
O=C(O)CC1CCN(C(=O)c2ccc(Cl)c(Cn3ccc4c(C(F)(F)F)cccc43)c2Cl)CC1 [EI-7]	< 100
Cc1cc(OC(F)(F)F)cc2ccn(Cc3c(Cl)ccc(C(=O)N4CCC(CCC(=O)O)CC4)c3Cl)c12 [EJ-2]	< 100
Cc1ccc(C(=O)N2CCC(CC(=O)O)CC2)c(C)c1Cn1ccc2cc(OC(F)(F)F)cc(C)c21 [EK, 2-(1-(2,4-dimethyl-3-((7-methyl-5-(trifluoromethoxy)-1H-indol-1-yl)methyl)benzoyl)piperidin-4-yl)acetic acid]	< 100
Cc1cc(OC(F)(F)F)cc2ccn(C(=O)c3c(Cl)ccc(C(=O)N4CCC(CC(=O)O)CC4)c3Cl)c12 [EL, 2-(1-(2,4-dichloro-3-(7-methyl-5-(trifluoromethoxy)-1H-indole-1-carbonyl)benzoyl)piperidin-4-yl)acetic acid]	< 100
Cc1cc(OC(F)(F)F)cc2ccn(C(=O)c3c(Cl)ccc(C(=O)N4CC5(CC(CC(=O)O)C5)C4)c3Cl)c12 [EL-1]	< 100
Cc1cc(OC(F)F)cc2ccn(Cc3c(Cl)ccc(C(=O)N4CCC(CC(=O)O)CC4)c3Cl)c12 [EM, 2-(1-(2,4-dichloro-3-((5-(difluoromethoxy)-7-methyl-1H-indol-1-yl)methyl)benzoyl)piperidin-4-yl)acetic acid]	< 100
O=C(O)CC1CCN(C(=O)c2ccc(Cl)c(Cn3ccc4cc(C5CC5)cc(F)c43)c2Cl)CC1 [EN, 2-(1-(2,4-dichloro-3-((5-cyclopropyl-7-fluoro-1H-indol-1-yl)methyl)benzoyl)piperidin-4-yl)acetic acid]	< 100
O=C(O)CC1CCN(C(=O)c2ccc(Cl)c(C(=O)n3ccc4cc(C5CC5)cc(F)c43)c2Cl)CC1 [EO, 2-(1-(2,4-dichloro-3-(5-cyclopropyl-7-fluoro-1H-indole-1-carbonyl)benzoyl)piperidin-4-yl)acetic acid]	< 100
O=C(O)CC1CCN(C(=O)c2ccc(Cl)c(Cn3ccc4cc(C(F)(F)F)cc(F)c43)c2Cl)CC1 [EP, 2-(1-(2,4-dichloro-3-((7-fluoro-5-(trifluoromethyl)-1H-indol-1-yl)methyl)benzoyl)piperidin-4-yl)acetic acid]	< 100

Structure (SMILES)	IC50 [nM]
Cc1cn(C(=O)c2c(Cl)ncc(C(=O)N3CCC(CC(=O)O)CC3)c2Cl)c2c(C)cc(C(F)(F)F)cc12 [EQ, 2-(1-(4,6-dichloro-5-(3,7-dimethyl-5-(trifluoromethyl)-1H-indole-1-carbonyl)nicotinoyl)piperidin-4-yl)acetic acid]	< 100
Cc1cn(Cc2c(Cl)ncc(C(=O)N3CCC(CC(=O)O)CC3)c2Cl)c2c(C)cc(C(F)(F)F)cc12 [ER, 2-(1-(4,6-dichloro-5-((3,7-dimethyl-5-(trifluoromethyl)-1H-indol-1-yl)methyl)nicotinoyl)piperidin-4-yl)acetic acid]	< 100
Cc1cc(C(F)(F)F)cc2ccn(C(=O)c3c(Cl)ccc(C(=O)N4CCC(CC(=O)O)CC4)c3Cl)c12 [ES, 2-(1-(2,4-dichloro-3-(7-methyl-5-(trifluoromethyl)-1H-indole-1-carbonyl)benzoyl)piperidin-4-yl)acetic acid]	< 100
Cc1cn(Cc2c(Cl)ccc(C(=O)N3CCOCC3)c2Cl)c2c(C)nc(C(F)(F)F)cc12 [ET, (2,4-dichloro-3-((3,7-dimethyl-5-(trifluoromethyl)-1H-pyrrolo[2,3-c]pyridin-1-yl)methyl)phenyl)(morpholino)methanone]	< 100
Cc1cn(C(=O)c2c(Cl)ccc(C(=O)N3CCC(CC(=O)O)CC3)c2Cl)c2c(C)nc(C(F)(F)F)cc12 [EV, 2-(1-(2,4-dichloro-3-(3,7-dimethyl-5-(trifluoromethyl)-1H-pyrrolo[2,3-c]pyridine-1-carbonyl)benzoyl)piperidin-4-yl)acetic acid]	< 100
Cc1c(C#N)ccc2c1cc(Cc1c(Cl)ccc(C(=O)N3CCOCC3)c1Cl)n2C [EX, 2-(2,6-dichloro-3-(morpholine-4-carbonyl)benzyl)-1,4-dimethyl-1H-indole-5-carbonitrile]	< 100
Cc1c(C#N)ccc2c1cc(Cc1c(Cl)ccc(C(=O)N3CCC(CC(=O)O)CC3)c1Cl)n2C [EY, 2-(1-(2,4-dichloro-3-((5-cyano-1,4-dimethyl-1H-indol-2-yl)methyl)benzoyl)piperidin-4-yl)acetic acid]	< 100
Cn1c(Cc2c(Cl)ccc(C(=O)N3CCOCC3)c2Cl)cc2c(Cl)cc(Cl)cc21 [EZ, (2,4-dichloro-3-((4,6-dichloro-1-methyl-1H-indol-2-yl)methyl)phenyl)(morpholino)methanone]	< 100
Cc1cc(C(F)(F)F)cc2c1cc(Cc1c(Cl)ccc(C(=O)N3CCN(C4COC4)CC3)c1Cl)n2C [Example A1, (2,4-dichloro-3-((1,4-dimethyl-6-(trifluoromethyl)-1H-indol-2-yl)methyl)phenyl)(4-(oxetan-3-yl)piperazin-1-yl)methanone]	< 100
Cc1cc(C(F)(F)F)cc2c1cc(Cc1c(Cl)ccc(C(=O)N3CCC(S(C)(=O)=O)CC3)c1Cl)n2C [Example A1-11]	< 100
Cn1c(Cc2c(Cl)ccc(C(=O)N3CCOCC3)c2Cl)cc2cc(C#N)ccc21 [Example AB, 2-(2,6-dichloro-3-(morpholine-4-carbonyl)benzyl)-1-methyl-1H-indole-5-carbonitrile]	100 to 500
Cn1c(Cc2c(Cl)ccc(C(=O)N3CCOCC3)c2Cl)cc2ccc(C#N)cc21 [Example AC, 2-(2,6-dichloro-3-(morpholine-4-carbonyl)benzyl)-1-methyl-1H-indole-6-carbonitrile]	100 to 500
Cc1cc(C#N)cc2c1cc(C(=O)c1c(Cl)ccc(C(=O)N3CCOCC3)c1Cl)n2C [Example AD, 2-(2,6-dichloro-3-(morpholine-4-carbonyl)benzoyl)-1,4-dimethyl-1H-indole-6-carbonitrile]	100 to 500
Cc1ccc(C(=O)N2CCOCC2)c(C)c1Cc1cc2c(C)cc(C#N)cc2n1C [Example AE, 2-(2,6-dimethyl-3-(morpholine-4-carbonyl)benzyl)-1,4-dimethyl-1H-indole-6-carbonitrile]	100 to 500
Cc1cc(C#N)cc2c1cc(Cc1c(Cl)ccc(O[C@H]3CC[C@@H](C(=O)O)CC3)c1Cl)n2C [Example AF1, cis-4-(2,4-dichloro-3-((6-cyano-1,4-dimethyl-1H-indol-2-yl)methyl)phenoxy)cyclohexanecarboxylic acid]	500 to 1000
Cc1cc(C#N)cc2c1cc(Cc1c(Cl)ccc(O[C@H]3CC[C@H](C(=O)O)CC3)c1Cl)n2C [Example AF, trans-4-(2,4-dichloro-3-((6-cyano-1,4-dimethyl-1H-indol-2-yl)methyl)phenoxy)cyclohexanecarboxylic acid]	100 to 500
Cc1cc(C#N)cc2c1cc(Cc1c(Cl)ccc(O[C@H]3C[C@@H](C(=O)O)C3)c1Cl)n2C [Example AH1, cis-3-(2,4-dichloro-3-((6-cyano-1,4-dimethyl-1H-indol-2-yl)methyl)phenoxy)cyclobutanecarboxylic acid]	500 to 1000
Cc1cc(C#N)cc2c1cc(Cc1c(Cl)ccc(O[C@H]3C[C@H](C(=O)O)C3)c1Cl)n2C [Example AH, trans-3-(2,4-dichloro-3-((6-cyano-1,4-dimethyl-1H-indol-2-yl)methyl)phenoxy)cyclobutanecarboxylic acid]	500 to 1000
Cc1cc(C#N)cc2c1cc(Cc1c(Cl)ccc(C(=O)N3CCC(OCC(=O)O)CC3)c1Cl)n2C [Example AM, 2-((1-(2,4-dichloro-3-((6-cyano-1,4-dimethyl-1H-indol-2-yl)methyl)benzoyl)piperidin-4-yl)oxy)acetic acid]	1000 to 10000
Cc1cc(C#N)cc2c1cc(C(=O)c1c(Cl)ccc(C(=O)N3CCC(O)CC3)c1Cl)n2C [Example AN, 2-(2,6-dichloro-3-(4-hydroxypiperidine-1-carbonyl)benzoyl)-1,4-dimethyl-1H-indole-6-carbonitrile]	< 100
